In general, inhibition refers to the relative decrease from the control value, in per cent.

Here are results for twelve compounds from patent publication US20240025907A1, “QUINAZOLINE PAN-KRas INHIBITORS” (Mirati Therapeutics, Inc., priority 2022, published 2024).

Assay type in all cases: cell-based
In test [1] the test system is KRas-mediated Phosphorylation of ERK in H358 cells. As to the kind of experiment: Cisbio HTRF pERK assay, H358 cells. The note with it: Homo sapiens, NCI-H358, H358 cells, single point at 100 nM.
Test [2] relates to KRas-mediated Phosphorylation of ERK in H460 cells. As to the kind of experiment: Cisbio HTRF pERK assay, H460 cells. The note with it: single point at 100 nM; for Inhibition (HTRF % at 100 nM) of KRas-mediated Phosphorylation of ERK, H460: H460 cells, 0.1 µM; for inhibition at 0.1 µM: Homo sapiens, NCI-H460, H460 cells.
For test [3], the system named is KRas-mediated Phosphorylation of ERK in HCT116 cells. As to the kind of experiment: Cisbio HTRF pERK assay, HCT116 cells. To be noted: single point at 100 nM; for Inhibition (HTRF % at 100 nM) of KRas-mediated Phosphorylation of ERK, HCT116: HCT116 cells, 0.1 µM; for inhibition at 0.1 µM: Homo sapiens, HCT-116, HCT116 cells. (Time-resolved FRET reads energy transfer from a long-lived donor to a nearby acceptor.)

Test [4] concerns KRas-mediated Phosphorylation of ERK in A549 cells. Kind of test: Cisbio HTRF pERK assay, A549 cells. The note with it: Homo sapiens, A549, A549 cells, single point at 100 nM.

Take `CCc1c(F)ccc2cc(O)cc(-c3c(F)cc4c(N5C[C@@H]6C[C@H](C5)[C@H](O)C6)nc(OC[C@@]56CCCN5C[C@H](F)C6)nc4c3F)c12` (atropisomer, axis not shown; (aS)) [Example 67, (1R,5R,6R)-3-((R)-7-(8-ethyl-7-fluoro-3-hydroxynaphthalen-1-yl)-6,8-difluoro-2-(((2R,7aS)-2-fluorohexahydro-1H-pyrrolizin-7a-yl)methoxy)quinazolin-4-yl)-3-azabicyclo[3.2.1]octan-6-ol]: the results for the inhibition at 0.1 µM in test [1] and in test [4] were 94% and 81%, respectively. In addition, in test [2], the “Inhibition (HTRF % at 100 nM) of KRas-mediated Phosphorylation of ERK, H460” value (from here on “Inhibition (HTRF % at 100 nM) … H460”) is given as 95%. Further, the “Inhibition (HTRF % at 100 nM) of KRas-mediated Phosphorylation of ERK, HCT116” value (shortened to “Inhibition (HTRF % at 100 nM) … HCT116”) in test [3] was found to be 73%.
Consider `CCc1c(F)ccc2cc(O)cc(-c3c(F)cc4c(N5CCCC6(CC(=O)NC6=O)C5)nc(OC[C@@]56CCCN5C[C@H](F)C6)nc4c3F)c12` (stereo partly drawn) [Example 62, 7-(7-(8-ethyl-7-fluoro-3-hydroxynaphthalen-1-yl)-6,8-difluoro-2-(((2R,7aS)-2-fluorotetrahydro-1H-pyrrolizin-7a(5H)-yl)methoxy)quinazolin-4-yl)-2,7-azaspiro[4.5]decane-1,3-dione], for which the inhibition at 0.1 µM turned out to be 96% in test [1], 98% in test [2], 92% in test [3] and 72% in test [4].
Regarding `CCc1c(F)ccc2cc(O)cc(-c3c(F)cc4c(N5CCCC6(CNS(=O)(=O)N6)C5)nc(OCC5(CN(C)C)CC5)nc4c3F)c12` (stereo not drawn) [Example 50, 7-(2-((1-((dimethylamino)methyl)cyclopropyl)methoxy)-7-(8-ethyl-7-fluoro-3-hydroxynaphthalen-1-yl)-6,8-difluoroquinazolin-4-yl)-2-thia-1,3,7-triazaspiro[4.5]decane 2,2-dioxide], the inhibition at 0.1 µM in test [1] was 3%; in test [2], 38%; in test [3] it was -3%; in test [4], -17%.
Consider `CCc1c(F)ccc2cc(O)cc(-c3c(F)cc4c(N5CCCn6nc(C(=O)N(C)C)c(C)c6C5)nc(OC[C@@]56CCCN5C[C@H](F)C6)nc4c3F)c12` [Example 80, 5-(7-(8-ethyl-7-fluoro-3-hydroxynaphthalen-1-yl)-6,8-difluoro-2-(((2R,7aS)-2-fluorohexahydro-1H-pyrrolizin-7a-yl)methoxy)quinazolin-4-yl)-N,N,3-trimethyl-5,6,7,8-tetrahydro-4H-pyrazolo[1,5-a][1,4]diazepine-2-carboxamide], for which the inhibition at 0.1 µM in test [1] worked out at 95%; in test [2] it was 89%; in test [3], 71%; in test [4] it was 83%.
As to `CCc1c(F)ccc2cc(O)cc(-c3c(F)cc4c(N5CCCn6nc(C(=O)NC)c(C)c6C5)nc(OC[C@@]56CCCN5C[C@H](F)C6)nc4c3F)c12` [Example 81, 5-(7-(8-ethyl-7-fluoro-3-hydroxynaphthalen-1-yl)-6,8-difluoro-2-(((2R,7aS)-2-fluorohexahydro-1H-pyrrolizin-7a-yl)methoxy)quinazolin-4-yl)-N,3-dimethyl-5,6,7,8-tetrahydro-4H-pyrazolo[1,5-a][1,4]diazepine-2-carboxamide], the inhibition at 0.1 µM turned out to be 98% in test [1], 26% in test [2], 32% in test [3] and 62% in test [4].
Turning to `CCc1c(F)ccc2cc(O)cc(-c3ccc4c(N5CCOCC(C)(O)C5)nc(OCC5(CN(C)C)CC5)nc4c3F)c12` (stereo not drawn) [Example 42, 4-(2-((1-((dimethylamino)methyl)cyclopropyl)methoxy)-7-(8-ethyl-7-fluoro-3-hydroxynaphthalen-1-yl)-8-fluoroquinazolin-4-yl)-6-methyl-1,4-oxazepan-6-ol], the inhibition at 0.1 µM was 71% in test [1], 59% in test [2], 30% in test [3] and 39% in test [4].
Turning to `CCc1c(F)ccc2cc(O)cc(-c3ccc4c(N5CCCC6(CNS(=O)(=O)N6)C5)nc(OCC5(CN(C)C)CC5)nc4c3F)c12` (stereo not drawn) [Example 37, 7-(2-((1-((dimethylamino)methyl)cyclopropyl)methoxy)-7-(8-ethyl-7-fluoro-3-hydroxynaphthalen-1-yl)-8-fluoroquinazolin-4-yl)-2-thia-1,3,7-triazaspiro[4.5]decane 2,2-dioxide], the values for the inhibition at 0.1 µM in test [2] and in test [3] were 28% and 0%, respectively.
Consider `CCc1c(F)ccc2cc(O)cc(-c3c(F)cc4c(N5CCOC[C@@](C)(O)C5)nc(OC[C@@]56CCCN5C[C@H](F)C6)nc4c3F)c12` (atropisomer, axis not shown; (aS)) [Example 66, (S)-4-((R)-7-(8-ethyl-7-fluoro-3-hydroxynaphthalen-1-yl)-6,8-difluoro-2-(((2R,7aS)-2-fluorohexahydro-1H-pyrrolizin-7a-yl)methoxy)quinazolin-4-yl)-6-methyl-1,4-oxazepan-6-ol], for which, in test [2], the “Inhibition (HTRF % at 100 nM) … H460” value is given as 97%. Moreover, in test [3], the “Inhibition (HTRF % at 100 nM) … HCT116” value was found to be 97%.
As for `CCc1c(F)ccc2cc(O)cc(-c3c(F)cc4c(N5C[C@@H]6C[C@H](C5)[C@H](O)C6)nc(OC[C@@]56CCCN5C[C@H](F)C6)nc4c3F)c12` (atropisomer, axis not shown; (aS)) [Example 68, (1R,5R,6R)-3-((S)-7-(8-ethyl-7-fluoro-3-hydroxynaphthalen-1-yl)-6,8-difluoro-2-(((2R,7aS)-2-fluorohexahydro-1H-pyrrolizin-7a-yl)methoxy)quinazolin-4-yl)-3-azabicyclo[3.2.1]octan-6-ol], in test [2], the “Inhibition (HTRF % at 100 nM) … H460” value is 14%. Besides, the “Inhibition (HTRF % at 100 nM) … HCT116” value in test [3] is recorded as 8%.
In the same order, the values of `CCc1c(F)ccc2cc(O)cc(-c3c(F)cc4c(N5CCOC[C@@](C)(O)C5)nc(OC[C@@]56CCCN5C[C@H](F)C6)nc4c3F)c12` (atropisomer, axis not shown; (aS)) [Example 65, (S)-4-((S)-7-(8-ethyl-7-fluoro-3-hydroxynaphthalen-1-yl)-6,8-difluoro-2-(((2R,7aS)-2-fluorohexahydro-1H-pyrrolizin-7a-yl)methoxy)quinazolin-4-yl)-6-methyl-1,4-oxazepan-6-ol] are 1% and 16%.
For the compound `CCc1c(F)ccc2cc(O)cc(-c3c(F)cc4c(N5CCCC6(CNC(=O)N6)C5)nc(OCC5(CN(C)C)CC5)nc4c3F)c12` (stereo not drawn) [Example 49, 7-(2-((1-((dimethylamino)methyl)cyclopropyl)methoxy)-7-(8-ethyl-7-fluoro-3-hydroxynaphthalen-1-yl)-6,8-difluoroquinazolin-4-yl)-1,3,7-triazaspiro[4.5]decan-2-one], the inhibition at 0.1 µM in test [2] turned out to be 23%; in test [3], 13%.
With `O=S1(=O)NCC2(CCCN(c3nc(OC[C@@]45CCCN4C[C@H](F)C5)nc4c(F)c(-c5cc(O)cc6ccc(F)c(Cl)c56)c(F)cc34)C2)N1` (stereo partly drawn) [Example 45, 7-(7-(8-chloro-7-fluoro-3-hydroxynaphthalen-1-yl)-6,8-difluoro-2-(((2R,7aS)-2-fluorotetrahydro-1H-pyrrolizin-7a(5H)-yl)methoxy)quinazolin-4-yl)-2-thia-1,3,7-triazaspiro[4.5]decane 2,2-dioxide], the inhibition at 0.1 µM is 94% in test [2] and 86% in test [3].
